In publication PMC7481197, “Uncovering the cytochrome P450-catalyzed methylenedioxy bridge formation in streptovaricins biosynthesis” (Nature Communications, 2020):

Legend:
Type in all cases: biochemical
StvP2 [1] = molecular target: T1, StvP2 (Streptomyces spectabilis, UniProt A0A286SBY7); assay: HPLC-DAD product formation, modified Hill equation fit; conditions: spinach Fdx/FdR, 4 mM NADPH, 50 mM Tris-HCl pH 7.5, 28 °C, 4 min; substrate inhibition, descending arm
T1 construct: N-terminal 6xHis tag, eight amino acids between tag and StvP2 removed, expressed in E. coli C43(DE3); heme-containing (Cys349 ligand); one molecule per asymmetric unit when substrate-free

StvP2 [2] = molecular target: T1, StvP2; assay: as above; conditions: spinach Fdx/FdR, 4 mM NADPH, 50 mM Tris-HCl pH 7.5, 28 °C, 4 min; ascending arm of substrate-inhibition curve; read-out: Ks
StvM1 = molecular target: T2, StvM1 (Streptomyces spectabilis, UniProt A0A286SC47); assay: LC-ESI-HRMS conversion of […] to […]; conditions: methyl donor; 100 μM damavaricin C, 50 mM Tris-HCl pH 7.5, 28 °C, 3 h
T2 construct: N-terminal 6xHis tag, pET28a(+) NdeI/EcoRI, expressed in E. coli BL21(DE3)
T2 sequence (A0A286SC47 1-202): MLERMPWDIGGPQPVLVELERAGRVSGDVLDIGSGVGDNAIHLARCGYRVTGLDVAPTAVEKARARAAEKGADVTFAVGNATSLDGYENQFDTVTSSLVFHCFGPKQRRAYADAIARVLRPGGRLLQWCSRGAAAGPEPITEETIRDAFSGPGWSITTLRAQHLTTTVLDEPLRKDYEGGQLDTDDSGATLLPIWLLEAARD

T1 sequence (A0A286SBY7 entry or part of it): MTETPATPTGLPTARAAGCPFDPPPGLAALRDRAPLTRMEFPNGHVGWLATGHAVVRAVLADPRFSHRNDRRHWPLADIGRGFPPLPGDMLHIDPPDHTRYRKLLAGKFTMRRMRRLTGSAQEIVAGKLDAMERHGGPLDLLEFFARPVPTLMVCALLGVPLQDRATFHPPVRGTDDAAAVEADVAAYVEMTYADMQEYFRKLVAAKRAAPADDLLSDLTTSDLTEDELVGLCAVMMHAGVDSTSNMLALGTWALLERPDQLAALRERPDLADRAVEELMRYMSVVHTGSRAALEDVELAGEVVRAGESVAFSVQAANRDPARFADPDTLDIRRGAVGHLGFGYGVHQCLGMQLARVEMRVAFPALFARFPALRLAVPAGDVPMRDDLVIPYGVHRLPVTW

Compound | Ki (StvP2 [1]) [µM] | Km (StvP2 [2]) [µM] | LC-ESI-HRMS conversion of 7 to 8 (StvM1)
6-methoxy-streptovaricin H [compound 4] | 399.35 ± 122.10 | 95.6 ± 30.8 | –
6-methoxy-streptovaricin D [compound 6] | 288.50 ± 122.60 | 67.4 ± 28.4 | –
COC(=O)[C@@H]1[C@H](O)[C@H](C)[C@H](O)[C@H](C)/C=C\C=C(/C)C(=O)Nc2c(C)c(OC(C)=O)c3c(c(OC)c(C)c(O)c3c2O)C(=O)/C(C)=C/[C@@](C)(O)[C@H](O)[C@@H](C)[C@H]1O [compound 2, 6-methoxy-streptovaricin C] | 367.30 ± 128.57 | 110 ± 46.2 | –
C[S+](CC[C@H](N)C(=O)O)C[C@H]1O[C@@H](n2cnc3c(N)ncnc32)[C@H](O)[C@@H]1O (stereo partly shown) [SAM] | – | – | using SAM as methyl donor
